For the assay, the system named is IL-2 production. Put plainly: Inhibition of IL-2 production in PHA-activated Jurkat cells. Type of assay: cell-based. The settings on record: Homo sapiens, PHA 2.5 μg/mL, 20 hours. As to the method: Jurkat cells were placed in a 96 well plate (0.5 million cells per well in 1% FBS medium) then test compounds of this invention were added at different concentrations. After 10 minutes, the cells were activated with PHA (final concentration 2.5 μg/mL) and incubated for 20 hours at 37° C. under CO2. The final volume was 200 μL. Following incubation, the cells were centrifuged and the supernatants collected and stored at −70° C. prior to assaying for IL-2 production. A commercial kit (IL-2 Eli-pair, Diaclone Research, Besancon, France) was used to detect production of IL-2, from which dose response curves were obtained. The IC50 value was calculated as the concentration at which. 50% of maximum IL-2 production after stimulation was inhibited versus a non-stimulation control.

Molecules are shown by their SMILES.

For `O=C(Nc1ccc(-n2c(C(F)(F)F)nc3ccccc32)cc1)Nc1cc(F)ccc1F` [Compound 50, N′-[4-(2-trifluoromethy-benzoimidazol-1-yl)-phenyl]-N-(2,5-difluoropheyl)-urea], the IC50 (bins given with μM limit) was above 1 µM. Still for that read-out and setting: for `O=C(Nc1ccc(-n2c(C(F)(F)F)nc3ccccc32)cc1)c1cc[n+]([O-])cc1F` [Compound 51, 1-Oxo-3-fluoro-N-[4-(2-trifluoromethyl-benzoimidazol-1-yl)-phenyl]-isonicotinamide] the value was above 1 µM; for `O=S(=O)(Nc1ccc(-n2c(C(F)(F)F)nc3ccccc32)cc1)c1cccc(F)c1F` [Compound 52, 2,3-Difluoro-N-[4-(trifluoromethyl-benzoimidazol-1-yl)-phenyl]-benzenesulfonamide], above 1 µM. Still for that read-out and setting: the value for `CC(=O)Nc1cc(NC(=O)c2cccc(F)c2F)ccc1-n1c(C(F)(F)F)nc2ccccc21` [Compound 53, 2,3-Difluoro-N-[3-acetylamino-4-(2-trifluoromethyl-benzoimidazol-1-yl)-phenyl]-benzamide] was above 1 µM; that for `O=C(Nc1ccc(-n2cnc3ccccc32)cc1)c1cccc(F)c1F` [Compound 54, 2,3-Difluoro-N-[4-(benzoimidazol-1-yl)-phenyl]-benzamide] was above 1 µM; that for `Cc1cc(-n2c(C(F)(F)F)nc3ccccc32)ccc1NC(=O)c1cccc(F)c1F` [Compound 55, 2,3-Difluoro-N-[2-methyl-4-(2-trifluoromethyl-benzoimidazol-1-yl)-phenyl]-benzamide] was above 1 µM. `O=C(Nc1ccc(-n2c(C(F)(F)F)nc3cc(N4C(=O)c5ccccc5C4=O)ccc32)cc1)c1cccc(F)c1F` [Compound 57, 2,3-Difluoro-N-{4-[2-trifluoromethyl-5-(1,3-dioxo-isoindol-2-yl)-benzoimidazol-1-yl]-phenyl}-benzamide]: the IC50 (bins given with μM limit) is above 1 µM.

In turn, `Cc1nnsc1C(=O)Nc1ccc(-n2c(C(F)(F)F)nc3cccnc32)cc1` [Compound 58, 4-Methyl-[1,2,3]thiadiazole-5-carboxylic acid {N-[4-(2-trifluoromethyl-imidazo[4,5-b]pyrid-3-yl)-phenyl]} amide] returned an IC50 (bins given with μM limit) above 1 µM. The same measure, in the same setting: for `O=C(Nc1ccc(-n2c(C(F)(F)F)nc3cc(O)c(O)cc32)cc1)c1cccc(F)c1F` [Compound 60, 2,3-Difluoro-N-[4-(2-trifluoromethyl-5,6-dihydroxy-benzoimidazol-1-yl)-phenyl]-benzamide] the value was above 1 µM. Still for that read-out and setting: for `O=C(Nc1ccc(-n2c(C(F)(F)F)nc3cnccc32)cc1)c1cccc(F)c1F` [Compound 61, 2,3-Difluoro-N-[4-(2-trifluoromethyl-imidazo[4,5-c]pyrid-1-yl)-phenyl]-benzamide] the value was above 1 µM; for `Cc1nnsc1C(=O)Nc1ccc(-n2c(C(F)(F)F)nc3ccccc32)nc1` [Compound 62, 4-Methyl-[1,2,3]thiadiazole-5-carboxylic acid {N-[2-(2-trifluoromethyl-benzoimidazol-1-yl)-pyrid-5-yl]} amide], above 1 µM. Compound `COc1ccc2c(c1)nc(C(F)(F)F)n2-c1ccc(NC(=O)c2c(Cl)cc(Cl)cc2Cl)cc1` [Compound 63, 2,4,6-Trichloro-N-[4-(2-trifluoromethyl-5-methoxy-benzoimidazol-1-yl)-phenyl]-benzamide] had an IC50 (bins given in nM) of 0.1 to 0.5 µM. Under “bins given in nM”, `O=C(Nc1ccc(-n2c(C(F)(F)F)nc3cc(C(F)(F)F)ccc32)cc1)c1cccc(F)c1F` [Compound 64, 2,3-Difluoro-N-{4-[2,5-di-(trifluoromethyl)-benzoimidazol-1-yl]-phenyl}-benzamide] registered an IC50 of 0.1 to 0.5 µM. Same read-out and setting: the value for `CS(=O)(=O)c1ccc2c(c1)nc(C(F)(F)F)n2-c1ccc(NC(=O)c2cccc(F)c2F)cc1` [Compound 65, 2,3-Difluoro-N-[4-(2-trifluoromethyl-5-methanesulfonyl-benzoimidazol-1-yl)-phenyl]-benzamide] was 0.1 to 0.5 µM.

The values above are taken from patent US20130142831A1, “COMPOUNDS FOR INFLAMMATION AND IMMUNE-RELATED USES” (Synta Pharmaceuticals Corp., priority 2004, published 2013).
